Test results taken from publication PMC5703966, “Systemic clearance and brain distribution of carbazole-based cyanine compounds as Alzheimer’s disease drug candidates” (Scientific Reports, 2017).
Where two headings read alike, the source gives them in different places.

Tests used:
[1] = Blood cell partitioning (blood to plasma ratio); type: in vitro ADME; settings: fresh whole blood, 37 °C
Experimental: The blood to plasma ratio was determined using the method shown in supplemental information (Supplemental Methods). […] The blood cell partitioning was calculated as follows. […] Plasma, liver microsomes and hepatocyte binding by RED device The stability of the compounds in plasma, liver microsomes and hepatocyte were studied to ensure the reliability of the binding data. Hepatocyte was deactivated by leaving them on a bench for 2 days and going through a freeze thaw cycle thereafter.

[2] = Brain distribution by brain slices experiment; type: in vitro ADME, mouse; settings: mouse
Experimental: The unbound volume of distribution in the brain (V u, brain) was determined in fresh brain slices using the protocol published by Friden et al.[25].

mouse hepatocytes = assay: Hepatocyte stability; type: in vitro ADME; settings: well-stirred model
[3] = Systemic clearance and brain distribution in WT and 3 × Tg-AD mice (8 months); type: in vivo, mouse; settings: mouse; for Kp: brain interstitial fluid (unbound) versus plasma (unbound), read-out: K puu,brain; for clearance / Vd / half-life / MRT inf: plasma; for Vd: read-out: Vdss; for MRT inf: read-out: MRT 0−∞
Experimental: (§1) The transgenic (Tg) AD mice (B6; 129-Psen1 ^tm1Mpm Tg (APPSwe, tauP301L) 1Lfa/Mmjax) and the corresponding wild-type (WT) (B6129SF2/J) mice was obtained from the Jackson Laboratory (Bar Harbor, Maine, USA), and maintained by the Animal Facility of Faculty of Health Sciences in University of Macau. Either 27 WT or AD mice (8 months) were randomly separated into 9 groups with 3 mice at each time point. Blood and brain were collected at time points 0.083, 0.167, 0.25, 0.5, 1, 2, 4, 8 and 16 hours after i.v. dosing (1 mg/kg). Mice were euthanized by isoflurane followed by cervical dislocation. All the plasma, urine, bile and brain samples were stored at −70 °C for subsequent analysis. The analytical methods for systemic and brain PK parameters were shown in supplemental information (Supplemental Methods).
(§2) Parameters in animals were determined using non-compartmental analysis. […] Systemic Cl p was calculated as the i.v. dose divided by AUC0−∞ ^iv. The terminal rate constant (K el) was calculated by a linear regression of the log-linear concentration-time curve, and the terminal elimination t 1/2 was calculated as 0.693 divided by K el. Mean residence time from t = 0 to infinity (MRT 0−∞) was calculated as AUMC 0−∞ divided by AUC 0−∞. Apparent steady-state distribution volume (Vd ss) was determined as Cl p multiplied by MRT 0−∞. […] The Cl bile was derived as the amount of (in milligrams) of SLM or SLOH in the bile over the 24-hour interval postdose/AUC0-24h. The influx clearance into brain (K in) was calculated by using the amount of drug in the brain (homogenate) at time t (A, brain (t)) (corrected for the amount of drug remaining in the cerebral vasculature) divided by plasma exposure up to this time point (AUC, plasma (0 − t)). The C u,brain was calculated by A brain (homogenate, ng/g brain) divided by V u,brain (mL/g brain). The unbound ISF to plasma ratio (K puu,brain) was calculated by unbound AUC 0−t of ISF (ng/mL × min) divided by unbound AUC 0–t (ng/mL × min) of plasma.

WT and 3 × Tg-AD mice = assay: as above; type: in vivo, mouse; settings: for K in: 1 mg/kg i.v.; for K puu,brain in AD mice relative to WT mice: higher in AD mice
Experimental: as §1, §2

in vitro = settings: human, Caco-2
P-gp = P-gp (Homo sapiens, UniProt P08183); assay: Efflux transporter identification in Caco-2 cell with P-gp specific inhibitors; settings: efflux ratio reduced by PSC833 and verapamil, concentration-dependent
BCRP = biological target: T1, BCRP (Homo sapiens, UniProt Q9UNQ0); assay: Efflux transporter identification in Caco-2 cell with BCRP specific inhibitors; settings: efflux ratio reduced by fumitremorgin C and Ko134, concentration-dependent
T1 sequence (Q9UNQ0 1-655): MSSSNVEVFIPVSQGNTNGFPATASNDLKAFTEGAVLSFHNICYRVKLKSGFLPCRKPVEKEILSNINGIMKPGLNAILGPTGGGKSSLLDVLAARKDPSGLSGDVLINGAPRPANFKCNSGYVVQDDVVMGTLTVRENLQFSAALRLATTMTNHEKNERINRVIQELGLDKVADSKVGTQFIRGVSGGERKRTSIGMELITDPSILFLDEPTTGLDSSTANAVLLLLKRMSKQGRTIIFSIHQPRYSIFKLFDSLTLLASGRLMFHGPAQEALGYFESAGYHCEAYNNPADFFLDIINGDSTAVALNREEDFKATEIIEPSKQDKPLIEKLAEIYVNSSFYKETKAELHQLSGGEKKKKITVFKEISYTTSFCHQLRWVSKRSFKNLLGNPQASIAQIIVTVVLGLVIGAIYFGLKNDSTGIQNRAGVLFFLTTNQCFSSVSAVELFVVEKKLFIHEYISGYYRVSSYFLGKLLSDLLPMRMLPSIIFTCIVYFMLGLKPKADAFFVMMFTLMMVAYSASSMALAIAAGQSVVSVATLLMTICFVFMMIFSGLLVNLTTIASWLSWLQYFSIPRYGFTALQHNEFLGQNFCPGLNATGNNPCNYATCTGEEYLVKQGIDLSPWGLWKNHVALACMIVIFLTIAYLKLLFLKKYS

[4] = 3×Tg-AD (B6;129-Psen1tm1Mpm Tg(APPSwe,tauP301L)1Lfa/Mmjax), iv, 1 mg/kg, AD mice 8 months, 1 mg/kg i.v.
[5] = 3×Tg-AD (B6;129-Psen1tm1Mpm Tg(APPSwe,tauP301L)1Lfa/Mmjax), iv, AD mice 8 months, 1 mg/kg i.v., read-out: Cl p (converted)
[6] = 3×Tg-AD (B6;129-Psen1tm1Mpm Tg(APPSwe,tauP301L)1Lfa/Mmjax), iv, AD mice 8 months, 1 mg/kg i.v.
[7] = B6129SF2/J (WT) and 3×Tg-AD, intravenous, 1 mg/kg, WT and AD mice (8 months), no significant difference, read-out: plasma clearance (converted)
[8] = B6129SF2/J (wild-type), iv, 1 mg/kg, WT mice 8 months, 1 mg/kg i.v.
[9] = B6129SF2/J (wild-type), iv, WT mice 8 months, 1 mg/kg i.v.
[10] = B6129SF2/J (wild-type), iv, WT mice 8 months, 1 mg/kg i.v., read-out: Cl p (converted)
[11] = iv, AD mice 8 months, 1 mg/kg i.v.

P-gp, sequence (P08183 whole entry): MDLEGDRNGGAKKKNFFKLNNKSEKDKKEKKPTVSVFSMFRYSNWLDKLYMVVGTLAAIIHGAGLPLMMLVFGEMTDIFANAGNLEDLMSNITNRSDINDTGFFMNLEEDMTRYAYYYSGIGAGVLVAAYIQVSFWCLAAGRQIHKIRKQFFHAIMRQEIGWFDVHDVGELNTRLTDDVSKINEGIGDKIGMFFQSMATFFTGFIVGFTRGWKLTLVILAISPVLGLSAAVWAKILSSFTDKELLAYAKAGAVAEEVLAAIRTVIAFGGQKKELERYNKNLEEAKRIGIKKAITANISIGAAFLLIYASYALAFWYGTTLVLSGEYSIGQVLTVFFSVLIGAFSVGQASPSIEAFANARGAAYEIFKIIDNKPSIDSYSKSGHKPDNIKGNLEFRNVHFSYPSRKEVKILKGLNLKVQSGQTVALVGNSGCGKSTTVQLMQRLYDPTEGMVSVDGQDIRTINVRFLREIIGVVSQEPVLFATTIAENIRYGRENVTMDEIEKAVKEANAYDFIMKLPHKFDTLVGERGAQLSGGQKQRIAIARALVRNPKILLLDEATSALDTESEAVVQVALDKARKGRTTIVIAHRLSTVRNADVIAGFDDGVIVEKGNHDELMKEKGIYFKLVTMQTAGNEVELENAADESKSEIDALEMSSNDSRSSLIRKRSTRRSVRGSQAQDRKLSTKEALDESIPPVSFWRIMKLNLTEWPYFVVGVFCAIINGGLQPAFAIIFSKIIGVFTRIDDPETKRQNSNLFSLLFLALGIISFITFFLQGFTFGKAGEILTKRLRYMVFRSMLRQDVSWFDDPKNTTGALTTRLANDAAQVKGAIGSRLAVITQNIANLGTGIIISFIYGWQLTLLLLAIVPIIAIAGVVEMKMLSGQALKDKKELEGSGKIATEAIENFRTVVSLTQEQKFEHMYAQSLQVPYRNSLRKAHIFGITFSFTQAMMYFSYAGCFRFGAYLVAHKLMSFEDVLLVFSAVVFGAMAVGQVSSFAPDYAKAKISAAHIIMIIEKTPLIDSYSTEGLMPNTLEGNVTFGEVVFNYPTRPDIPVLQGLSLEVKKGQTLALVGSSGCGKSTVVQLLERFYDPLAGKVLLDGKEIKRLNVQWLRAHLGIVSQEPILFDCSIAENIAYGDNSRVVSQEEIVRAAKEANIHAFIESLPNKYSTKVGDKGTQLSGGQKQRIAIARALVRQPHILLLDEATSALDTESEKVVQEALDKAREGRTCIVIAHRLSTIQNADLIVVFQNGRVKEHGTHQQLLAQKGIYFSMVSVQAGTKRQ

Row | blood plasma ratio at 1 h, 1 μM ([1]; human) | blood plasma ratio at 1 h, 1 μM ([1]; mouse) | V u,brain (AD) [2] [mL/g brain] | V u,brain (WT) [2] [mL/g brain] | Hepatocyte scaled Cl hep (mouse hepatocytes) [mL/min/kg] | Kp [3, 4] | clearance [3, 5] [mL/min/kg] | Vd [3, 6] [L/kg] | clearance [3, 7] [mL/min/kg] | Kp [3, 8] | half-life [3, 9] [h] | clearance [3, 10] [mL/min/kg] | MRT inf [3, 9] [h] | Vd [3, 9] [L/kg] | half-life [3, 11] [h] | MRT inf [3, 11] [h] | K in (WT and 3 × Tg-AD mice; AD mice 8 months) [μL/min per g brain] | K in (WT and 3 × Tg-AD mice; WT mice 8 months) [μL/min per g brain] | K puu,brain in AD mice relative to WT mice (WT and 3 × Tg-AD mice) [fold] | Papp A→B at 1 μM (in vitro) [×10⁻⁶ cm/s] | Structure (SMILES) | further results
1 | ~0.76 | ~1.3 | 1.20 ± 0.240 | 1.40 ± 0.400 | 9.67 ± 1.67 | 8.1 | 10 | 2.3 ± 0.71 | ~10 | 0.98 ± 0.22 | 4.3 ± 1.1 | 7.5 | 3 ± 1.2 | 2.1 ± 0.45 | 4.8 ± 1.2 | 2.9 ± 0.38 | 4.00 ± 0.500 | 1.10 ± 0.100 | 8 | 2.7 | COCCOCCn1c2ccccc2c2cc(/C=C/c3cc[n+](CCO)c4ccccc34)ccc21 [SLOH, (E)-1-(2-hydroxyethyl)-4-(2-(9-(2-(2-metho-xyethoxy)-ethyl)-9H-carbazol-3-yl)vinyl) quinolin-1-ium chloride] | efflux ratio at 1 μM (in vitro): 9; P-gp substrate identification (P-gp): substrates; BCRP substrate identification (BCRP): substrates
2 | ~0.82 | ~1.4 | 1.50 ± 0.580 | 2.10 ± 0.650 | 8.67 ± 1.67 | 11 | 13.2 | 1.3 ± 0.32 | ~11.7 | 2.5 ± 0.44 | 6 ± 1 | 11.3 | 1.5 ± 0.18 | 1.3 ± 0.58 | 3.5 ± 1 | 1.7 ± 0.55 | 4.10 ± 1.10 | 1.70 ± 0.630 | 4 | 2.5 | COCCOCCn1c2ccccc2c2cc(/C=C/c3cc[n+](C)c4ccccc34)ccc21.[I-] [SLM, (E)-4-(2-(9-(2-(2-methoxyethoxy)ethyl)-9H-carbazol-3-yl)-vinyl)-1-methyl-quinolin-1-iumiodide] | efflux ratio at 1 μM (in vitro): 34; P-gp substrate identification (P-gp): substrates; BCRP substrate identification (BCRP): substrates
